Experimental data from PubChem BioAssay (NCI).
Values joined by “and” are separate entries in the source; they are usually repeats but may differ in a detail not shown here. Equal values may be shown once.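 Compound exposure: 48 hours, 5 concentrations, 96-well plates. GI50 = concentration required for 50% inhibition of growth. TGI denotes the concentration required for complete inhibition of growth.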

What was measured:
Assay in all cases: NCI tumour cell line growth inhibition, 48 h
M14 melanoma = tested on: M14 melanoma
NCI-H23 lung = tested on: NCI-H23 lung
HCC-2998 colon = tested on: HCC-2998 colon
OVCAR-5 ovarian = tested on: OVCAR-5 ovarian
IGROV1 ovarian = tested on: IGROV1 ovarian
HOP-92 NSCLC = tested on: HOP-92 NSCLC
OVCAR-3 ovarian = tested on: OVCAR-3 ovarian
BT-549 breast = tested on: BT-549 breast
SK-OV-3 ovarian = tested on: SK-OV-3 ovarian
TK-10 renal = tested on: TK-10 renal

SMILES	TGI (M14 melanoma)	TGI (NCI-H23 lung)	TGI (HCC-2998 colon)	TGI (OVCAR-5 ovarian)	TGI (IGROV1 ovarian)	TGI (HOP-92 NSCLC)	TGI (OVCAR-3 ovarian)	TGI (BT-549 breast)	TGI (SK-OV-3 ovarian)	TGI (TK-10 renal)	GI50 (M14 melanoma)	GI50 (NCI-H23 lung)	GI50 (HCC-2998 colon)	GI50 (OVCAR-5 ovarian)	GI50 (IGROV1 ovarian)	GI50 (OVCAR-3 ovarian)	GI50 (BT-549 breast)	GI50 (SK-OV-3 ovarian)	GI50 (TK-10 renal)	GI50 (HOP-92 NSCLC)
CCN(CC)CCn1c2ccccc2c(=O)c2c(O)ccc(O)c21	63.6 µM	62.2 µM	> 57.7 µM	> 78.5 µM	66.3 µM	39.9 µM	47.6 µM	44.7 µM	> 81 µM	49.2 µM										
COc1cc(NC(=O)CSc2nc3ccc(C)cc3c(=O)n2Cc2ccccc2)cc(OC)c1OC	> 100 µM	42.3 µM	> 100 µM	> 100 µM	> 100 µM		> 100 µM	20 µM	8.58 µM	92.3 µM	8.38 µM	8.3 µM	> 100 µM	58 µM	32.5 µM	9.36 µM	2.98 µM	3.06 µM	5.58 µM	
COc1cc(/C=N/NC(=O)c2cnn3c2NC(c2ccccc2)C3)ccc1Oc1ccccc1 (stereo not given)	10.7 µM	10.8 µM	30 µM	11.9 µM	10.8 µM	8.58 µM	1.31 µM	3.16 µM	10.6 µM	11.5 µM	0.761 µM	1.63 µM	3.6 µM	2.34 µM	1.36 µM	0.346 µM	0.864 µM	1.47 µM	2.62 µM	2.06 µM
CN(C)CC1C(=O)O[C@H]2[C@H]1CC/C(COC(=O)c1cc3ccccc3[nH]1)=C\CC[C@@]1(C)O[C@@H]21 (stereo not given in full)	4.29 µM	8.3 µM	3.58 µM	6.15 µM	4.62 µM	3.62 µM	1.76 µM	4.48 µM	39.3 µM	3.98 µM	1.76 µM	2.39 µM	1.78 µM	2.37 µM	1.97 µM	0.672 µM	1.66 µM	19.9 µM	2.04 µM	1.53 µM
CC[C@@]1(OC(=O)CN)C(=O)OCc2c1cc1n(c2=O)Cc2cc3c(N)cccc3nc2-1		0.0765 µM	0.782 µM	1.12 µM		> 100 µM	3.77 µM	1.63 µM		> 21.6 µM		< 0.01 µM	0.084 µM	0.045 µM	0.115 µM	0.0749 µM	0.0372 µM		1.31 µM	0.0371 µM
Oc1ccccc1C=Nc1nc(SCc2ccccc2)nc2[nH]ncc12	> 100 µM	> 100 µM	> 100 µM	> 100 µM	> 100 µM	71.1 µM	> 100 µM	> 100 µM	> 100 µM	> 100 µM	38.4 µM	61.2 µM	47.9 µM	> 100 µM	> 100 µM	64.5 µM	> 100 µM	> 100 µM	23.9 µM	12.4 µM
COc1ccc(-n2cc(-c3cc(OC)c(OC)c(OC)c3)nc2SCc2ccccc2)cc1OC	> 100 µM	> 100 µM	> 100 µM	> 100 µM	88 µM	> 29.5 µM	> 100 µM	> 100 µM	> 100 µM	> 100 µM	> 91.6 µM	> 100 µM	> 100 µM	> 100 µM	31.6 µM	> 100 µM	> 82.7 µM	> 100 µM	> 100 µM	6.45 µM
CCOC(=O)/C(=C\c1ccc(C#N)cc1)C(C)=O	95.1 µM	36.7 µM	19.6 µM	> 100 µM	33.9 µM	50.6 µM	> 100 µM	37 µM	> 100 µM	57.1 µM										
N#CC1=C(N)Oc2c(sc3c(Br)cccc23)C1c1ccc(Br)cc1 (stereo not given)	3.5 µM	13.4 µM	7.33 µM	14.3 µM	12.9 µM	5.56 µM	1.15 µM	12.7 µM	3.38 µM	2.57 µM	0.515 µM	1.58 µM	1.77 µM	3.12 µM	0.887 µM	0.307 µM	1.32 µM	0.316 µM	0.986 µM	1.43 µM
COc1ccc(/C(=N\O)c2cc(C)c(OC)c(C)c2)cc1O	> 100 µM	> 100 µM	> 100 µM	> 100 µM	> 100 µM	> 100 µM	> 100 µM	> 100 µM	> 100 µM	> 100 µM	< 0.01 µM	0.0314 µM	0.0279 µM	0.0631 µM	0.0134 µM	< 0.01 µM	0.0261 µM	0.0166 µM	0.078 µM	0.41 µM
CN1C(=O)C(CC(=O)O)NC1=S (stereo not given)	> 100 µM	> 100 µM	> 100 µM	> 100 µM	> 100 µM	> 100 µM	> 100 µM	> 100 µM	> 100 µM	> 100 µM										
Oc1[nH]c2c(Br)cccc2c1C1=Nc2ccccc2/C1=N/OCCN1CCCC1		4.17 µM and 36.5 µM	6.18 µM	4.82 µM and 14.7 µM	2.98 µM	3.12 µM	3.45 µM	2.85 µM		> 100 µM	1.94 µM	1.02 µM and 0.959 µM	1 µM	1.21 µM and 1.91 µM	0.469 µM	1.48 µM	1.24 µM		2.58 µM and 1.8 µM	1.04 µM
COc1cc(Cl)cc(-c2nn(-c3cccc(NC(=O)Nc4cc(C(F)(F)F)cc(C(F)(F)F)c4)c3)cc2-c2ccncc2)c1	2.3 µM	2.01 µM	5.42 µM	10.1 µM	13.4 µM	0.783 µM	2.04 µM	6.78 µM	6.68 µM	14.6 µM	0.481 µM	0.332 µM	0.963 µM	1.6 µM	0.669 µM	0.364 µM	2.34 µM	1.22 µM	0.684 µM	0.228 µM
Clc1ccc2nnnn2n1	6.26 µM	35.4 µM	40.6 µM	20.5 µM	50.1 µM	27 µM	6.66 µM	9.92 µM	92.9 µM	23.6 µM	1.98 µM	5.98 µM	16.9 µM	4.7 µM	4.05 µM	2.6 µM	2.87 µM	10.5 µM	3.5 µM	4.15 µM
